Experimental data published in ChEMBL document CHEMBL5537173, “Emerging Drug Targets for Antimalarial Drug Discovery: Validation and Insights into Molecular Mechanisms of Function” (J Med Chem, 2024).

Tests used:
[1] = target: Plasmepsin V (Plasmodium vivax, UniProt A0A0H4FQ60); assay: Inhibition of recombinant Plasmodium vivax Plasmepsin V
[2] = Inhibition of Plasmodium falciparum 3D7 EF2
[3] = target: cGMP-dependent protein kinase (Plasmodium falciparum, UniProt W7JX98); assay: Inhibition of Plasmodium falciparum NF54 PKG
cGMP-dependent protein kinase, sequence (W7JX98 whole entry): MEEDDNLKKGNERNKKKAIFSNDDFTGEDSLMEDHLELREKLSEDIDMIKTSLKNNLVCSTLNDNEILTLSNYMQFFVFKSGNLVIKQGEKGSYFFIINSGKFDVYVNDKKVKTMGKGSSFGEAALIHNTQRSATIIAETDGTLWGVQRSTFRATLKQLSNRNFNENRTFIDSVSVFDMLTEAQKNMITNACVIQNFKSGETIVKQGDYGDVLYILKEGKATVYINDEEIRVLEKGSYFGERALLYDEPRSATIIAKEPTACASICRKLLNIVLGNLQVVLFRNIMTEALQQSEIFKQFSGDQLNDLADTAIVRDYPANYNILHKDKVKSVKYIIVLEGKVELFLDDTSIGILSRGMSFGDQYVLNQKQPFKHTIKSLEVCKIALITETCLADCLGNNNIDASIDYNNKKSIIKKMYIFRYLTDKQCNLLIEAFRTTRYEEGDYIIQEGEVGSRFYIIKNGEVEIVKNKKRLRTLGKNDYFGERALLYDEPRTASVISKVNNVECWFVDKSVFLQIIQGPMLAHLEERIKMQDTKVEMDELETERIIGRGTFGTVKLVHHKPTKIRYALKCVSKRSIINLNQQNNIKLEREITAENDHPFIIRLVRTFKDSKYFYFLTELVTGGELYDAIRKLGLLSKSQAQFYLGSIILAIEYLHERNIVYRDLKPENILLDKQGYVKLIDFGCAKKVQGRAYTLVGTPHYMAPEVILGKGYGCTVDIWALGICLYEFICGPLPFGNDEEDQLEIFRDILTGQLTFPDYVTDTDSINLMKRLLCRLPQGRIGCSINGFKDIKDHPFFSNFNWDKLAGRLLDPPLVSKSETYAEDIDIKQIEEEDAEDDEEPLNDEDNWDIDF

Plasmepsin V, sequence (A0A0H4FQ60 whole entry): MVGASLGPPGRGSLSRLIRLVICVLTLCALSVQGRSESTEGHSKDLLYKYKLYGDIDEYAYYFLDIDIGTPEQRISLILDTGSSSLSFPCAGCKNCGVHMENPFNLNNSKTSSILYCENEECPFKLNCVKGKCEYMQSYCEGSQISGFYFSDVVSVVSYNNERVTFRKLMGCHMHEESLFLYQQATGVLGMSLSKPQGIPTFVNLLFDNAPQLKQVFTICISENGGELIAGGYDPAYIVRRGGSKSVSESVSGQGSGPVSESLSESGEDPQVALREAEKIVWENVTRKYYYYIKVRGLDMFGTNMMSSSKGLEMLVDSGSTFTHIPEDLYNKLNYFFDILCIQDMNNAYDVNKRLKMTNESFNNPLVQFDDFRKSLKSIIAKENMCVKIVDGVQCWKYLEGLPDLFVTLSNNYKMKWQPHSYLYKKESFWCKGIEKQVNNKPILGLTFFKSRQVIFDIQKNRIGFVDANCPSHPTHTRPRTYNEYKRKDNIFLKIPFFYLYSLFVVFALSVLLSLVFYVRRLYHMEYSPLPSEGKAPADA

For CC(C)C[C@H](NC(=O)[C@@H](NC(=O)[C@H](CCONC(=N)N)NC(=O)OCc1ccccc1)C(C)C)[C@@H](O)CC(=O)NCCc1ccccc1, the IC50 [1] was 0.2 nM.

In the case of O=C(NCCN1CCCC1)c1cc(-c2ccc(CN3CCOCC3)cc2)nc2ccc(F)cc12 [CABAMIQUINE], the IC50 [2] is reported as 2 nM.

CN(C)Cc1ccn2c(-c3ccnc(NCC4CC4)n3)c(-c3ccc(F)c(NS(C)(=O)=O)c3)nc2c1 showed an IC50 [3] of 0.16 nM.
